Reference: ChEMBL document CHEMBL1275576, “In vitro activity of tomopenem (CS-023/RO4908463) against anaerobic bacteria” (Antimicrob Agents Chemother, 2009)

How the values were obtained:
[1] = Half life in human at […] by HPLC method; type: ADME, organism-based; details: in vivo
[2] = Half life in rhesus monkey at 10 mg/kg by HPLC method; type: ADME, organism-based, Macaca mulatta; set-up: dose 10 mg/kg; details: in vivo
[3] = tested on: Plasma; assay: Plasma protein binding in human at […] by HPLC method; type: ADME, cell-free

Compound: C[C@@H](O)[C@H]1C(=O)N2C(C(=O)O)=C(S[C@@H]3CN[C@H](C(=O)Nc4cccc(C(=O)O)c4)C3)[C@H](C)[C@H]12
- half-life [1]: 5 h
- half-life [2]: 5 h
- Activity [3]: > 95%
